Reference: article PMC11178787, “Development of a natural product optimization strategy for inhibitors against MraY, a promising antibacterial target” (Nature Communications, 2024)
≈ marks a conversion by molar mass, not a printed value.

Assays:
MraYSA (S. aureus MraY) = MraYSA (S. aureus MraY) (Staphylococcus aureus, UniProt Q2FZ93); assay: fluorescence assay of dansylated lipid I formation; format: biochemical
Enterococcus faecium 9 = assay: microbe, parasite or virus in culture; design: CLSI broth microdilution MIC in MHB-II; settings: Enterococcus faecium, 9, 18 h, read-out: MIC
Description: (§1) MICs were determined by a microdilution broth method as recommended by the CLSI with MHB-II. For MICs of stable analogues, a 2-fold dilution of each compound was prepared in DMSO at 100-fold of the final concentration. The strains were inoculated with 5 × 10^5 cfu/mL in 96-well plates (each 100 μL/well), and 1 μL of DMSO solutions of the samples were added (contained less than 1% DMSO). The plates were incubated at 37 °C for 18 h and then MICs were determined. MICs of stable analogues in Table 1 were the highest value in three trials. MICs in Supplementary Table 1 were determined in one trial.

Enterococcus faecium 1 = assay: microbe, parasite or virus in culture; design: CLSI broth microdilution MIC in MHB-II; settings: Enterococcus faecium, 1, 18 h, read-out: MIC
Description: as §1

[1] = system: T1, Staphylococcus aureus #2334; assay: microbe, parasite or virus in culture; design: CLSI broth microdilution MIC in MHB-II; settings: Staphylococcus aureus, 18 h, read-out: MIC
T1 construct: #2334
Description: as §1

[2] = system: T2, Staphylococcus aureus #1958; assay: microbe, parasite or virus in culture; design: CLSI broth microdilution MIC in MHB-II; settings: Staphylococcus aureus, 18 h, read-out: MIC
T2 construct: #1958
Description: as §1

[3] = system: T3, Staphylococcus aureus #2931; assay: microbe, parasite or virus in culture; design: CLSI broth microdilution MIC in MHB-II; settings: Staphylococcus aureus, 18 h, read-out: MIC
T3 construct: #2931
Description: as §1

Enterococcus faecium 7 = assay: microbe, parasite or virus in culture; design: CLSI broth microdilution MIC in MHB-II; settings: Enterococcus faecium, 7, 18 h, read-out: MIC
Description: as §1

Enterococcus faecalis 26 = system: T4, Enterococcus faecalis 26; assay: microbe, parasite or virus in culture; design: CLSI broth microdilution MIC in MHB-II; settings: Enterococcus faecalis, 26, 18 h, read-out: MIC
T4 construct: 26
Description: as §1

Enterococcus faecium 5 = assay: microbe, parasite or virus in culture; design: CLSI broth microdilution MIC in MHB-II; settings: Enterococcus faecium, 5, 18 h, read-out: MIC
Description: as §1

[4] = system: T5, Staphylococcus aureus #2934; assay: microbe, parasite or virus in culture; design: CLSI broth microdilution MIC in MHB-II; settings: Staphylococcus aureus, 18 h, read-out: MIC
T5 construct: #2934
Description: as §1

[5] = system: T6, Staphylococcus aureus #2071; assay: microbe, parasite or virus in culture; design: CLSI broth microdilution MIC in MHB-II; settings: Staphylococcus aureus, 18 h, read-out: MIC
T6 construct: #2071
Description: as §1

Enterococcus faecium 4 = assay: microbe, parasite or virus in culture; design: CLSI broth microdilution MIC in MHB-II; settings: Enterococcus faecium, 4, 18 h, read-out: MIC
Description: as §1

Enterococcus faecium 10 = system: T7, Enterococcus faecium 10; assay: microbe, parasite or virus in culture; design: CLSI broth microdilution MIC in MHB-II; settings: Enterococcus faecium, 10, 18 h, read-out: MIC
T7 construct: 10
Description: as §1

Enterococcus faecium 3 = assay: microbe, parasite or virus in culture; design: CLSI broth microdilution MIC in MHB-II; settings: Enterococcus faecium, 3, 18 h, read-out: MIC
Description: as §1

[6] = system: T8, Staphylococcus aureus #2932; assay: microbe, parasite or virus in culture; design: CLSI broth microdilution MIC in MHB-II; settings: Staphylococcus aureus, 18 h, read-out: MIC
T8 construct: #2932
Description: as §1

Enterococcus faecalis 28 = system: T9, Enterococcus faecalis 28; assay: microbe, parasite or virus in culture; design: CLSI broth microdilution MIC in MHB-II; settings: Enterococcus faecalis, 28, 18 h, read-out: MIC
T9 construct: 28
Description: as §1

Enterococcus faecalis 21 = system: T10, Enterococcus faecalis 21; assay: microbe, parasite or virus in culture; design: CLSI broth microdilution MIC in MHB-II; settings: Enterococcus faecalis, 21, 18 h, read-out: MIC
T10 construct: 21
Description: as §1

Enterococcus faecalis 22 = system: T11, Enterococcus faecalis 22; assay: microbe, parasite or virus in culture; design: CLSI broth microdilution MIC in MHB-II; settings: Enterococcus faecalis, 22, 18 h, read-out: MIC
T11 construct: 22
Description: as §1

Enterococcus faecalis 23 = system: T12, Enterococcus faecalis 23; assay: microbe, parasite or virus in culture; design: CLSI broth microdilution MIC in MHB-II; settings: Enterococcus faecalis, 23, 18 h, read-out: MIC
T12 construct: 23
Description: as §1

Enterococcus faecium 11 = system: T13, Enterococcus faecium 11; assay: microbe, parasite or virus in culture; design: CLSI broth microdilution MIC in MHB-II; settings: Enterococcus faecium, 11, 18 h, read-out: MIC
T13 construct: 11
Description: as §1

[7] = system: T14, Staphylococcus aureus #2310; assay: microbe, parasite or virus in culture; design: CLSI broth microdilution MIC in MHB-II; settings: Staphylococcus aureus, 18 h, read-out: MIC
T14 construct: #2310
Description: as §1

Enterococcus faecium 8 = assay: microbe, parasite or virus in culture; design: CLSI broth microdilution MIC in MHB-II; settings: Enterococcus faecium, 8, 18 h, read-out: MIC
Description: as §1

Enterococcus faecalis 27 = system: T15, Enterococcus faecalis 27; assay: microbe, parasite or virus in culture; design: CLSI broth microdilution MIC in MHB-II; settings: Enterococcus faecalis, 27, 18 h, read-out: MIC
T15 construct: 27
Description: as §1

[8] = system: T16, Staphylococcus aureus #2933; assay: microbe, parasite or virus in culture; design: CLSI broth microdilution MIC in MHB-II; settings: Staphylococcus aureus, 18 h, read-out: MIC
T16 construct: #2933
Description: as §1

in vitro = assay: in vitro; design: WST-8 cell viability assay in HepG2 cells; settings: human, hepg2 cells; read-out: IC50
Description: Cells were regularly passed to maintain exponential growth. HepG2 cells were sowed by 1.0 × 10^4 cells for each well in 96-well plate and cultured at 37 °C under 5% CO2 in air for 24 h. The cells were treated with a solution of test compounds in DMSO at various concentration and incubated at 37 °C under 5% CO2 in air for 24 h. After that, the WST-8 (Dojindo) cell proliferation assay was used. Cell viability was indicated as a percentage of the negative control (cells treated with DMSO only) and that value was fixed at 100%.

MraYSA (S. aureus MraY), sequence (Q2FZ93 whole entry): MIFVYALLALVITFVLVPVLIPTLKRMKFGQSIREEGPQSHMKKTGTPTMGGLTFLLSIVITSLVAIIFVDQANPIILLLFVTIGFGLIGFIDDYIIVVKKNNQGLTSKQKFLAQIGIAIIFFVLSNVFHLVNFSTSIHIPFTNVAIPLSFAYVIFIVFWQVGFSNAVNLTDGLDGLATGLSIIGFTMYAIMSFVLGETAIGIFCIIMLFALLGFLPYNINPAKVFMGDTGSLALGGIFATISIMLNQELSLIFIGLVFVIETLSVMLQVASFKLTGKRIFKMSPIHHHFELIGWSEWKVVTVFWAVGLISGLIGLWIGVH

## CCCCCCCCCCCCCCCC(=O)N[C@@H](CCCCN)C(=O)Nc1ccc(CN[C@H](C(=O)O)[C@H](O[C@@H]2O[C@H](CN)[C@@H](O)[C@H]2O)[C@H]2O[C@@H](n3ccc(=O)[nH]c3=O)[C@H](O)[C@@H]2O)cc1 [compound 5, analogue 5]
MraYSA (S. aureus MraY)
  IC50: 0.0031 µM
Enterococcus faecium 9
  MIC: 0.25 µg/mL (≈ 0.272 µM)
Enterococcus faecium 1
  MIC: 1 µg/mL (≈ 1.09 µM)
[1]
  MIC: 1 µg/mL (≈ 1.09 µM)
[2]
  MIC: 1 µg/mL (≈ 1.09 µM)
[3]
  MIC: 0.25 µg/mL (≈ 0.272 µM)
Enterococcus faecium 7
  MIC: 0.5 µg/mL (≈ 0.543 µM)
Enterococcus faecalis 26
  MIC: 0.13 µg/mL (≈ 0.141 µM)
Enterococcus faecium 5
  MIC: 0.5 µg/mL (≈ 0.543 µM)
[4]
  MIC: 0.25 µg/mL (≈ 0.272 µM)
[5]
  MIC: 0.5 µg/mL (≈ 0.543 µM)
Enterococcus faecium 4
  MIC: 0.25 µg/mL (≈ 0.272 µM)
Enterococcus faecium 10
  MIC: 0.5 µg/mL (≈ 0.543 µM)
Enterococcus faecium 3
  MIC: 0.5 µg/mL (≈ 0.543 µM)
[6]
  MIC: 1 µg/mL (≈ 1.09 µM)
Enterococcus faecalis 28
  MIC: < 0.06 µg/mL
Enterococcus faecalis 21
  MIC: 0.5 µg/mL (≈ 0.543 µM)
Enterococcus faecalis 22
  MIC: 0.13 µg/mL (≈ 0.141 µM)
Enterococcus faecalis 23
  MIC: 0.13 µg/mL (≈ 0.141 µM)
Enterococcus faecium 11
  MIC: 0.5 µg/mL (≈ 0.543 µM)
[7]
  MIC: 1 µg/mL (≈ 1.09 µM)
Enterococcus faecium 8
  MIC: 0.25 µg/mL (≈ 0.272 µM)
Enterococcus faecalis 27
  MIC: 0.25 µg/mL (≈ 0.272 µM)
[8]
  MIC: 0.5 µg/mL (≈ 0.543 µM)
In vitro
  CC50 at 24 h: 22 µM

## CCCCCCCCCCCCCCCC(=O)N[C@@H](CCCNC(=N)N)C(=O)Nc1ccc(CN[C@H](C(=O)O)[C@H](O[C@@H]2O[C@H](CN)[C@@H](O)[C@H]2O)[C@H]2O[C@@H](n3ccc(=O)[nH]c3=O)[C@H](O)[C@@H]2O)cc1 [compound 7, analogue 7]
MraYSA (S. aureus MraY)
  IC50: 0.0017 µM
Enterococcus faecium 9
  MIC: 0.25 µg/mL (≈ 0.264 µM)
Enterococcus faecium 1
  MIC: 1 µg/mL (≈ 1.05 µM)
[1]
  MIC: 2 µg/mL (≈ 2.11 µM)
[2]
  MIC: 1 µg/mL (≈ 1.05 µM)
[3]
  MIC: 1 µg/mL (≈ 1.05 µM)
Enterococcus faecium 7
  MIC: 0.5 µg/mL (≈ 0.527 µM)
Enterococcus faecalis 26
  MIC: 0.13 µg/mL (≈ 0.137 µM)
Enterococcus faecium 5
  MIC: 0.5 µg/mL (≈ 0.527 µM)
[4]
  MIC: 1 µg/mL (≈ 1.05 µM)
[5]
  MIC: 1 µg/mL (≈ 1.05 µM)
Enterococcus faecium 4
  MIC: 0.5 µg/mL (≈ 0.527 µM)
Enterococcus faecium 10
  MIC: 1 µg/mL (≈ 1.05 µM)
Enterococcus faecium 3
  MIC: 1 µg/mL (≈ 1.05 µM)
Enterococcus faecalis 28
  MIC: < 0.06 µg/mL
Enterococcus faecalis 21
  MIC: 0.5 µg/mL (≈ 0.527 µM)
Enterococcus faecalis 22
  MIC: 0.13 µg/mL (≈ 0.137 µM)
Enterococcus faecalis 23
  MIC: 0.5 µg/mL (≈ 0.527 µM)
Enterococcus faecium 11
  MIC: 2 µg/mL (≈ 2.11 µM)
[7]
  MIC: 2 µg/mL (≈ 2.11 µM)
Enterococcus faecium 8
  MIC: 0.5 µg/mL (≈ 0.527 µM)
Enterococcus faecalis 27
  MIC: 0.25 µg/mL (≈ 0.264 µM)
[8]
  MIC: 1 µg/mL (≈ 1.05 µM)
In vitro
  CC50 at 24 h: 25 µM

## CCCCCCCCCCCCCCCC(=O)N[C@@H](CCCNC(=N)N)C(=O)Nc1cccc(CN[C@H](C(=O)O)[C@H](O[C@@H]2O[C@H](CN)[C@@H](O)[C@H]2O)[C@H]2O[C@@H](n3ccc(=O)[nH]c3=O)[C@H](O)[C@@H]2O)c1 [compound 8, analogue 8]
MraYSA (S. aureus MraY)
  IC50: 0.0018 µM
Enterococcus faecium 9
  MIC: 1 µg/mL (≈ 1.05 µM)
Enterococcus faecium 1
  MIC: 1 µg/mL (≈ 1.05 µM)
[2]
  MIC: 2 µg/mL (≈ 2.11 µM)
[3]
  MIC: 1 µg/mL (≈ 1.05 µM)
Enterococcus faecium 7
  MIC: 1 µg/mL (≈ 1.05 µM)
Enterococcus faecalis 26
  MIC: 0.25 µg/mL (≈ 0.264 µM)
Enterococcus faecium 5
  MIC: 1 µg/mL (≈ 1.05 µM)
[4]
  MIC: 1 µg/mL (≈ 1.05 µM)
[5]
  MIC: 64 µg/mL (≈ 67.5 µM)
Enterococcus faecium 4
  MIC: 1 µg/mL (≈ 1.05 µM)
Enterococcus faecium 10
  MIC: 1 µg/mL (≈ 1.05 µM)
Enterococcus faecium 3
  MIC: 2 µg/mL (≈ 2.11 µM)
[6]
  MIC: 2 µg/mL (≈ 2.11 µM)
Enterococcus faecalis 28
  MIC: < 0.06 µg/mL
Enterococcus faecalis 21
  MIC: 1 µg/mL (≈ 1.05 µM)
Enterococcus faecalis 22
  MIC: 1 µg/mL (≈ 1.05 µM)
Enterococcus faecalis 23
  MIC: 0.25 µg/mL (≈ 0.264 µM)
Enterococcus faecium 11
  MIC: 2 µg/mL (≈ 2.11 µM)
[7]
  MIC: 2 µg/mL (≈ 2.11 µM)
Enterococcus faecium 8
  MIC: 1 µg/mL (≈ 1.05 µM)
Enterococcus faecalis 27
  MIC: 0.5 µg/mL (≈ 0.527 µM)
[8]
  MIC: 1 µg/mL (≈ 1.05 µM)
In vitro
  CC50 at 24 h: 23 µM
